From patent US7799954B2, “Dicarbonyl derivatives and methods of use” (Abraxis BioScience, LLC, priority 2006, dated 2010)

Tested on: MX-1 (human breast carcinoma) cells
Assay: in vitro growth inhibition, Promega CellTiter Blue Cell Viability Assay
Type: cell-based
Conditions: MX1, 72 h
Method: The cytotoxicity assay was quantitated using the Promega CellTiter Blue Cell Viability Assay. Briefly, cells (5000 cells/well) were plated onto 96-well microtiter plates in RPMI 1640 medium supplemented with 10% FBS and incubated at […] in a humidified 5% CO2 atmosphere. After 24 h, cells were exposed to various concentrations of compound in DMSO and cultured for another 72 h. 100 ul of media were removed and 20 ul of Promega CellTiter Blue reagent were added to each well and shaken to mix. After 4 hours of incubation at 37° C. in a humidified 5% CO2 atmosphere, the plates were read at 544 ex/620 em. The fluorescence produced is proportional to the number of viable cells. After plotting fluorescence produced against drug concentration, the IC50 was calculated as the […] of the resulting non-linear regression.

Question: With `CN(C)C1=CC(=O)C(C2C(=O)C=C(N(C)C)CC2(C)C)C(C)(C)C1` (centres unmarked) [Compound 1] as the compound, how does the IC50 read?
Answer: > 1000 µM

Question: How did the IC50 turn out when `CC1(C)C=CC(=O)C(C2CC(C)(C)C=CC2=O)C1` (centres unmarked) [Compound 2] was run?
Answer: 56.8 µM

Question: `O=C1CCC(c2ccccc2)CC1C1CC(c2ccccc2)CCC1=O` (centres unmarked) [Compound 3] was tested. Which IC50 did it give?
Answer: 29.7 µM

Question: Which IC50 does the source give for `CCOC1=CC(=O)C(C2CCC(OCC)=CC2=O)CC1` (centres unmarked) [Compound 4] here?
Answer: > 1000 µM

Question: Which IC50 does the source give for `COc1ccc2c(c1)CCC(C1CCc3cc(OC)ccc3C1=O)C2=O` (centres unmarked) [Compound 5] here?
Answer: > 1000 µM

Question: With `O=C1c2ccccc2CCC1C1CCc2ccccc2C1=O` (centres unmarked) [Compound 6] as the compound, how does the IC50 read?
Answer: > 1000 µM

Question: With `C/C=C/C(=O)C(C)C(C)C(=O)/C=C/C` (centres unmarked) [Compound 7] as the compound, how does the IC50 read?
Answer: 2.63 µM

Question: With `O=C1OC(c2ccccc2)CC1C1CC(c2ccccc2)OC1=O` (centres unmarked) [Compound 9] as the compound, how does the IC50 read?
Answer: 472 µM

Question: Which IC50 does the source give for `O=C(CCC(=O)C1=CCCCC1)C1=CCCCC1` [Compound 10] here?
Answer: > 1000 µM

Question: How did the IC50 turn out when `CC(C)=CC(=O)CCC(=O)C=C(C)C` [Compound 11] was run?
Answer: 10.3 µM

Question: `CC(C(=O)c1ccccc1)C(C)C(=O)c1ccccc1` (centres unmarked) [Compound 12] was tested. Which IC50 did it give?
Answer: > 1000 µM

Question: How did the IC50 turn out when `O=C(/C=C/c1ccccc1)CCC(=O)/C=C/c1ccccc1` [Compound 13] was run?
Answer: 37.9 µM

Question: Which IC50 does the source give for `O=C(/C=C/c1cccc(Cl)c1)CCC(=O)/C=C/c1cccc(Cl)c1` [Compound 14] here?
Answer: 55.7 µM

Question: How did the IC50 turn out when `CCCC/C=C/C(=O)CCC(=O)/C=C/CCCC` [Compound 15] was run?
Answer: 7.99 µM

Question: With `C/C=C/C(=O)C(C)C1CCC=CC1=O` (centres unmarked) [Compound 20] as the compound, how does the IC50 read?
Answer: 0.52 µM

Question: With `O=C(/C=C/c1ccccc1)CC1CCC=CC1=O` (centres unmarked) [Compound 21] as the compound, how does the IC50 read?
Answer: 0.42 µM

Question: Which IC50 does the source give for `COc1ccc(/C=C/C(=O)CC2CCC=CC2=O)cc1OC` (centres unmarked) [Compound 23] here?
Answer: 0.17 µM

Question: For `O=C(/C=C/c1ccc2c(c1)OCO2)CC1CCC=CC1=O` (centres unmarked) [Compound 24], which IC50 is on record?
Answer: 0.7 µM

Question: Which IC50 does the source give for `O=C(O)/C=C/C(=O)/C=C/c1ccccc1` [Compound 28] here?
Answer: 3.96 µM

Question: For `COc1ccc(/C=C/C(=O)/C=C/C(=O)O)cc1OC` [Compound 29], which IC50 is on record?
Answer: 29 µM

Question: With `COc1cc(/C=C/C(=O)/C=C/C(=O)O)cc(OC)c1OC` [Compound 30] as the compound, how does the IC50 read?
Answer: 34.2 µM

Question: With `COc1ccc(/C=C/C(=O)/C=C/C(=O)N2CCN(c3ccncc3)CC2)cc1OC` [Compound 37] as the compound, how does the IC50 read?
Answer: 0.12 µM

Question: How did the IC50 turn out when `COc1ccc(/C=C/C(=O)/C=C/C(=O)N2CCN(c3ccccc3)CC2)cc1OC` [Compound 38] was run?
Answer: 0.25 µM

Same assay, conditions: MX1, MX-1 cells, 72 h exposure, CellTiter Blue fluorescence 544 ex/620 em, read-out: IC50

Question: For `CC(C)=C/C=C/C(=O)CCC(=O)/C=C/C=C(C)C` [Compound 16], which IC50 is on record?
Answer: 16.2 µM

Question: Which IC50 does the source give for `COc1ccc(/C=C/C(=O)CCC(=O)/C=C/c2ccc(OC)c(OC)c2)cc1OC` [Compound 17] here?
Answer: 73.1 µM

Question: `O=C1c2cc(F)ccc2OCC1C1COc2ccc(F)cc2C1=O` (centres unmarked) [Compound 18] was tested. Which IC50 did it give?
Answer: > 1000 µM

Question: `CC(C)=CC(=O)CC1CCC=CC1=O` (centres unmarked) [Compound 19] was tested. Which IC50 did it give?
Answer: 1.04 µM

Question: `C/C=C/C(=O)C(C)CC(=O)/C=C/c1ccccc1` (centres unmarked) [Compound 22] was tested. Which IC50 did it give?
Answer: 2.07 µM

Question: How did the IC50 turn out when `O=C(/C=C/c1ccc(O)cc1)CC1CCC=CC1=O` (centres unmarked) [Compound 25] was run?
Answer: 0.16 µM

Question: `O=C(/C=C/c1cccc(C(F)(F)F)c1)CC1CCC=CC1=O` (centres unmarked) [Compound 26] was tested. Which IC50 did it give?
Answer: 2.59 µM

Question: Which IC50 does the source give for `CCOC(=O)CCC(=O)/C=C/c1ccccc1` [Compound 27] here?
Answer: 77.5 µM

Question: Which IC50 does the source give for `CCOC(=O)/C=C/C(=O)/C=C/c1ccccc1` [Compound 31] here?
Answer: 2.17 µM

Question: `CCCN(C)C(=O)/C=C/C(=O)/C=C/c1ccccc1` [Compound 32] was tested. Which IC50 did it give?
Answer: 0.39 µM

Question: For `O=C(/C=C/C(=O)Nc1ccccc1)/C=C/c1ccccc1` [Compound 33], which IC50 is on record?
Answer: 3.25 µM

Question: How did the IC50 turn out when `CCCN(C)C(=O)/C=C/C(=O)/C=C/c1ccc(OC)c(OC)c1` [Compound 34] was run?
Answer: 0.28 µM

Question: Which IC50 does the source give for `COc1ccc(/C=C/C(=O)/C=C/C(=O)Nc2ccccc2)cc1OC` [Compound 35] here?
Answer: 0.89 µM

Question: Which IC50 does the source give for `COc1ccc(/C=C/C(=O)/C=C/C(=O)N2CCN(C)CC2)cc1OC` [Compound 36] here?
Answer: 0.17 µM

Question: Which IC50 does the source give for `COc1cc(/C=C/C(=O)/C=C/C(=O)N2CCN(C)CC2)cc(OC)c1OC` [Compound 39] here?
Answer: 0.8 µM

Question: Which IC50 does the source give for `COc1cc(/C=C/C(=O)/C=C/C(=O)N2CCN(c3ccncc3)CC2)cc(OC)c1OC` [Compound 40] here?
Answer: 0.48 µM

Question: For `COC(=O)/C=C/C(=O)Nc1ccc(F)cc1` [Compound 41], which IC50 is on record?
Answer: 121 µM

Question: `CO/N=C(\C=C\c1ccc(OC)c(OC)c1)CC1CCC=C/C1=N\OC` (centres unmarked) [Compound 42] was tested. Which IC50 did it give?
Answer: 128 µM

Question: `CCCN(C)C(=O)/C=C/C(/C=C/c1ccccc1)=N\OC` [Compound 43] was tested. Which IC50 did it give?
Answer: 171 µM

Question: How did the IC50 turn out when `COc1ccc(/C=C/C(/C=C/C(=O)N2CCN(C)CC2)=NO)cc1OC` [Compound 45] was run?
Answer: 371 µM

Question: How did the IC50 turn out when `CON=C(/C=C/C(=O)N1CCN(C)CC1)/C=C/c1ccc(OC)c(OC)c1` [Compound 46] was run?
Answer: 482 µM

Question: `COc1ccc(/C=C/C(/C=C/C(=O)N2CCN(C)CC2)=NOc2ccccc2)cc1OC` [Compound 47] was tested. Which IC50 did it give?
Answer: 8.73 µM

Question: For `COc1ccc(/C=C/C(/C=C/C(=O)N2CCN(C)CC2)=NOCc2ccccc2)cc1OC` [Compound 48], which IC50 is on record?
Answer: 23.4 µM

Question: For `CON=C(/C=C/C(=O)N1CCN(C)CC1)/C=C/c1cc(OC)c(OC)c(OC)c1` [Compound 49], which IC50 is on record?
Answer: > 1000 µM

Question: Which IC50 does the source give for `O=C(O)c1cc(/C=C/c2ccccc2)no1` [Compound 50] here?
Answer: > 1000 µM

Question: How did the IC50 turn out when `CCOC(=O)c1cc(/C=C/c2ccccc2)no1` [Compound 51] was run?
Answer: 533 µM

Question: How did the IC50 turn out when `CCCN(C)C(=O)c1cc(/C=C/c2ccccc2)no1` [Compound 52] was run?
Answer: 195 µM
